Like-named read-outs stand apart in the source and are kept apart here.
How the values were obtained:
HCC827 cells = experiment: Growth inhibition, sulforhodamine B assay, HCC827; format: cell-based; conditions: for IC50: HCC827 (EGFR E746_A750 deletion), 72 h; for anticancer activity / effect on cell proliferation: HCC827, result in words
Text: (§1) Two NSCLC cell lines carrying specific EGFR mutations (HCC827: EGFR sensitizing E746_A750 deletion; H1975: resistance-causing EGFR T790M secondary mutation) were purchased from American Type Culture Collection (ATCC; Manassas, VA, USA). A normal human lung epithelial cell line BEAS-2B was also obtained from ATCC to investigate the potential toxic effect of the tested drugs. HCC827, H1975, and BEAS-2B cells were maintained in RPMI1640 medium supplemented with 10% fetal bovine serum, 100-U/mL streptomycin sulfate, and 100-U/mL penicillin G sulfate, and incubated at 37°C in 5% CO2.
(§2) Growth inhibitory effects of various drug candidates on the cell lines were evaluated by the sulforhodamine B assay ([32]). Cells were seeded into 96-well tissue culture plates in 100 µL at a plating density of 3,000–5,000 cells/well, and allowed to incubate overnight. The cells were then treated with various drug candidates at a range of concentrations and allowed to incubate at 37°C in 5% CO2 for 72 h. Each drug concentration was tested in quadruplicate and controls were tested in replicates of eight.

H1975 cells [1] = experiment: Growth inhibition, sulforhodamine B assay, H1975; format: cell-based; conditions: for anticancer activity / effect on cell proliferation: H1975, result in words
Text: as §1, §2

BEAS-2B cells = experiment: Cytotoxicity in normal lung epithelial cell line BEAS-2B; format: cell-based, human; conditions: for reduced cell viability: BEAS-2B
Text: as §1, §2

EGFR wild type [2] = biological target: EGFR wild type (Homo sapiens, UniProt P00533); experiment: Cell-free kinase inhibition assay (ADP-Glo), EGFR wild type; format: biochemical; conditions: recombinant EGFR wild type, poly-EY substrate
Procedure: (§3) Inhibition of tyrosine kinase signaling by the drug candidates identified was examined in a cell-free system by assessing the phosphorylation of a poly-EY (4:1 Glu, Tyr) peptide substrate (for EGFR) with recombinant kinases EGFR^wt, EGFR^L858R, or EGFR^L858R+T790M as described previously ([34]). Inhibition of the recombinant kinases by the drug candidates was evaluated by using the ADP-Glo Kinase assay kit according to the manufacturer’s instruction (Promega, Madison, WI, USA). […] Also, 5 µL of ADP-Glo reagent was then added and incubation continued at room temperature for another 40 min. Afterward, 10 µL of kinase detection reagent was added and the mixture was allowed to incubate at room temperature for 30 min, before the measurement of luminescence by GloMax 20/20 Luminometer (Promega).

EGFR wild type [3] = experiment: as above; format: biochemical; conditions: wild type IC50 versus L858R IC50
Procedure: as §3

EGFR L858R = EGFR L858R (Homo sapiens, UniProt P00533, L858R); experiment: Cell-free kinase inhibition assay (ADP-Glo), EGFR L858R; format: biochemical; conditions: recombinant EGFR L858R, poly-EY substrate
Procedure: as §3

EGFR L858R/T790M = EGFR L858R/T790M (Homo sapiens, UniProt P00533, L858R/T790M); experiment: Cell-free kinase inhibition assay (ADP-Glo), EGFR L858R/T790M; format: biochemical; conditions: for Fold difference from L858R value: L858R/T790M IC50 versus L858R IC50; for IC50: recombinant EGFR L858R/T790M, poly-EY substrate
Procedure: as §3

H1975 cells [4] = experiment: Annexin V apoptosis assay; format: cell-based; conditions: for induction of apoptosis: H1975, 48 h, result in words; for proportion of apoptotic cells: 48 h
Procedure: Cells were grown on a 60-mm tissue culture dish at a density of about 5.0 × 10^5 cells/well. […] At the end of the treatment, both floating and attached cells were collected and washed twice with ice-cold phosphate buffer solution. The extent of apoptosis was determined by using the APC annexin-V apoptosis kit (BD Bioscience, San Jose, CA, USA) according to the manufacturer’s instructions. Cells positive for both annexin V and 7-AAD were considered apoptotic.

EGFR phosphorylation = experiment: Western blot, EGFR autophosphorylation in HCC827 and H1975 cells; format: cell-based; conditions: H1975 compared with HCC827, 4 h, result in words
Procedure: (§4) Non-small cell lung cancer (HCC827, H1975) cell lines were treated with the tested drug candidates for the designated time (4 h). The cells were then harvested for Western blot analysis in lysis buffer (0.05-M HEPES pH 7.4, 0.15-M NaCl, 2-mM EDTA, 10% v/v glycerol, 1% v/v Triton X-100) supplemented with protease and phosphatase inhibitor cocktail (Thermo Scientific). Whole cell lysates were separated by SDS-PAGE and subjected to immunoblot analysis with the respective antibodies [total EGFR, phosphor-EGFR (Y845), phosphor-ERK1/2 (Thr177/Thr160), ERK1/2, phosphor-Akt, total Akt, and GAPDH (Santa Cruz Biotechnology, Santa Cruz, CA, USA)]. Primary antibody incubation was carried out at 4°C overnight in 5% bovine serum albumin/phosphate-buffered saline-Tween 20. Afterward, the membranes were incubated with HRP-conjugated donkey anti-mouse/anti-rabbit secondary antibody at room temperature for 1 h, and developed using the WesternBright Quantum chemiluminescence detection system (Advansta Corporation, Menlo Park, CA, USA). Anti-GAPDH antibody was used as the loading control (Santa Cruz Biotech, Santa Cruz, CA, USA). Digital chemiluminescence images were captured and quantified by using the FluorChem Q Imaging System (Alpha Innotech Corporation, Santa Clara, CA, USA).

[5] = tested on: phosphorylation of Akt and ERK; experiment: Western blot, phosphorylation of Akt and ERK in HCC827 and H1975 cells; format: cell-based; conditions: H1975 compared with HCC827, 4 h, result in words
Procedure: as §4

PUMA = experiment: Western blot, induction of PUMA in HCC827 and H1975 cells; format: cell-based; conditions: H1975 compared with HCC827, result in words
[6] = tested on: L858R/T790M EGFR-bearing NSCLC cells; conditions: L858R/T790M EGFR-bearing NSCLC cells ref 15; cited from earlier work
[7] = tested on: phosphorylation of EGFR, Akt, and ERK; experiment: Western blot, drug combination, phosphorylation of EGFR, Akt and ERK in H1975 cells; format: cell-based; conditions: H1975, gefitinib 10 µM, indacaterol 10 µM, alone or concomitant, 4 h, result in words
[8] = H1975 (EGFR L858R/T790M), 72 h, read-out: IC50
[9] = highest concentration tested 100 µM

EGFR wild type (Homo sapiens, UniProt P00533), sequence (P00533 25-1210): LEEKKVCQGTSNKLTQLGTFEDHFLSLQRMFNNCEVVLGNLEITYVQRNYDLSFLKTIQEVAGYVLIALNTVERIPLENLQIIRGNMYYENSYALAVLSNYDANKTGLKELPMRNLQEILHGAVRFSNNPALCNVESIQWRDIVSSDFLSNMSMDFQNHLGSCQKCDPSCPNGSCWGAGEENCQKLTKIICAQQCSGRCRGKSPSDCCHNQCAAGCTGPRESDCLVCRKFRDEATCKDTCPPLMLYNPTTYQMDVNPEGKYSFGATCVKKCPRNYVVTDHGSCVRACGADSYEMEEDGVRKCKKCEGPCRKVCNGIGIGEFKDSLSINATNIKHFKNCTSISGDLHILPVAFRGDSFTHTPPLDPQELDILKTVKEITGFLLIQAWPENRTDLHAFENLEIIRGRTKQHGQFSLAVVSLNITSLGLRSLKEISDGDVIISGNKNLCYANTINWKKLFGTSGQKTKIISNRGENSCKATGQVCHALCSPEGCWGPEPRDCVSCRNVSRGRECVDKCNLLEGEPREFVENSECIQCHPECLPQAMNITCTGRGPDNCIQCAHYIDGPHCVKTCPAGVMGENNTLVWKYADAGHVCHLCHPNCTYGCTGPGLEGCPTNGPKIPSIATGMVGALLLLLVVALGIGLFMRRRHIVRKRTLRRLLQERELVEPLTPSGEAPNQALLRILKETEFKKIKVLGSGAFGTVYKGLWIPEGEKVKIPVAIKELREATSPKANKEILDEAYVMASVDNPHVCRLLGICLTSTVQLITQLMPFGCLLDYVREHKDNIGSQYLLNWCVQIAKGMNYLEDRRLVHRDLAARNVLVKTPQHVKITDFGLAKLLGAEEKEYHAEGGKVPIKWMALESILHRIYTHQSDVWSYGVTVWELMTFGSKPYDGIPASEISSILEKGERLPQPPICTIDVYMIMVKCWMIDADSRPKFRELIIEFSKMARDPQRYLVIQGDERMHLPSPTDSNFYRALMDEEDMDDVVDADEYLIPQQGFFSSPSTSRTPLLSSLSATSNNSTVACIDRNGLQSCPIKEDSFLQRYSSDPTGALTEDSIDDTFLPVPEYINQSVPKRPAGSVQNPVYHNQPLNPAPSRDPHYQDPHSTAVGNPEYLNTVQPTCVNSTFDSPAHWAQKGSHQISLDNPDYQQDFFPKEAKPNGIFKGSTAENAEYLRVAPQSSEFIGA
EGFR L858R, sequence (P00533 25-1210 L858R): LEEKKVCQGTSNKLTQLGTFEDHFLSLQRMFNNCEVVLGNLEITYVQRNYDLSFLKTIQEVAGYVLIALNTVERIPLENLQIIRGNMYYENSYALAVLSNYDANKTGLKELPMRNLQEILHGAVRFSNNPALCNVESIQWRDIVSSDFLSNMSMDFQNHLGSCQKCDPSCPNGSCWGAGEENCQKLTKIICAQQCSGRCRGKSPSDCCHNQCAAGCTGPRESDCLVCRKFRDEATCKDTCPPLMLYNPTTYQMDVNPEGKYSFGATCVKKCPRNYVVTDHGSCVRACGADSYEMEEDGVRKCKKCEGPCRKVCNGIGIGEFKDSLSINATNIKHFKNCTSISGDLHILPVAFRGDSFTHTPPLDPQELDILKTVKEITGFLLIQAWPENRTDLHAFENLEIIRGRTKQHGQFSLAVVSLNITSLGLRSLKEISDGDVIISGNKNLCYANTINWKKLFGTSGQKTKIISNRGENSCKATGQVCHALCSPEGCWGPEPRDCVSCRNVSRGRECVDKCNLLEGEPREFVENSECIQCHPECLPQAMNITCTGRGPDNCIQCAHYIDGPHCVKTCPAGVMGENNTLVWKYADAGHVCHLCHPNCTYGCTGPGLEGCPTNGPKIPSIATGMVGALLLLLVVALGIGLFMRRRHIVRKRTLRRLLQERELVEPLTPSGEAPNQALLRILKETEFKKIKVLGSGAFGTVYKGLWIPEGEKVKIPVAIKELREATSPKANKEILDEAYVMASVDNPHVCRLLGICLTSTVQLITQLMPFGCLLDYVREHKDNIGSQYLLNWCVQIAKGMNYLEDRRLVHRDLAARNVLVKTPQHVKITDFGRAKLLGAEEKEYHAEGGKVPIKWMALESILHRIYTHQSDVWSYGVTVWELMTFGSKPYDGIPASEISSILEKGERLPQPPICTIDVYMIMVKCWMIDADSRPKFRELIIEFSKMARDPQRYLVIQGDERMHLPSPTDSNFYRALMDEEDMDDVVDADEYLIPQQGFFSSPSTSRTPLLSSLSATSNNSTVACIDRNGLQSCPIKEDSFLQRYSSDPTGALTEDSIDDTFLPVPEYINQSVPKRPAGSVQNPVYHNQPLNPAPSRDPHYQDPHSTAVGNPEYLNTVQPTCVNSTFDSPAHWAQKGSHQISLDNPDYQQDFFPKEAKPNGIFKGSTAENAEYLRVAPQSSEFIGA
EGFR L858R/T790M, sequence (P00533 25-1210 T790M/L858R): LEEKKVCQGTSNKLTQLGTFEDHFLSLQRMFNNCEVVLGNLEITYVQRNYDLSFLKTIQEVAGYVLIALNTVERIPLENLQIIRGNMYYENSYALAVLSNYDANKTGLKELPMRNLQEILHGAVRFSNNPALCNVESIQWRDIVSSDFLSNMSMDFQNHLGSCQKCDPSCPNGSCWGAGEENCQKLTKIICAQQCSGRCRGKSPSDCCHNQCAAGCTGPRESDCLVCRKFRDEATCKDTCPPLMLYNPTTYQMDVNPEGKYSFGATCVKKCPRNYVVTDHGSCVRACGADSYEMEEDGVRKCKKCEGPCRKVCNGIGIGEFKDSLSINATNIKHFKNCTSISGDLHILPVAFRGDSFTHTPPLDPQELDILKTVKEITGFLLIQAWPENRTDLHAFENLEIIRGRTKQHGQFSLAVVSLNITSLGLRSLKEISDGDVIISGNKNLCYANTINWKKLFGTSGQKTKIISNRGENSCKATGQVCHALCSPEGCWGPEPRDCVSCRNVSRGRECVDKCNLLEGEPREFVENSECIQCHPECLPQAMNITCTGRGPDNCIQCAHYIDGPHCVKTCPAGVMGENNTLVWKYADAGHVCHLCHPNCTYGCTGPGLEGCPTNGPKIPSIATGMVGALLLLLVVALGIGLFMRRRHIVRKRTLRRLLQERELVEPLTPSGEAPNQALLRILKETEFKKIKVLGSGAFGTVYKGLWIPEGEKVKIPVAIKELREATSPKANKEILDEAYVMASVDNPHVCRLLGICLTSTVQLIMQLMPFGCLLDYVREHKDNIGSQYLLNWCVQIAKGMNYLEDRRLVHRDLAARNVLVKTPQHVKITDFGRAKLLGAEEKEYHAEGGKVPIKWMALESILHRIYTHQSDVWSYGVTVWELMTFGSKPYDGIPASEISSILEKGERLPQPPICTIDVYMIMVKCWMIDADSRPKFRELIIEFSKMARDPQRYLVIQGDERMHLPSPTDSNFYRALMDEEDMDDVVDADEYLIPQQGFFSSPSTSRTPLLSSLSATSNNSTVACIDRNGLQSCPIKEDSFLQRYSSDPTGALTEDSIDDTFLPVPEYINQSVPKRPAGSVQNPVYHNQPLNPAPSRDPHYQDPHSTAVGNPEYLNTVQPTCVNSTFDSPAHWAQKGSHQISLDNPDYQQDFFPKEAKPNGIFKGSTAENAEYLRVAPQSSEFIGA

Compound	anticancer activity / effect on cell proliferation (HCC827 cells)	anticancer activity / effect on cell proliferation (H1975 cells [1])	IC50 (EGFR wild type [2]) [nM]	Fold difference from L858R value (EGFR wild type [3])	IC50 (EGFR L858R) [nM]	Fold difference from L858R value (EGFR L858R/T790M)	IC50 (EGFR L858R/T790M) [nM]	induction of apoptosis (H1975 cells [4])	inhibition of EGFR phosphorylation (EGFR phosphorylation)	further results
Cc1ccc([C@@H]2O[C@H](CO)[C@@H](O)[C@H](O)[C@H]2O)cc1Cc1ccc(-c2ccc(F)cc2)s1 [Canagliflozin]	exhibit anticancer activity	exhibit anticancer activity	795 ± 49.6	2.2	368 ± 29.6	0.7	261 ± 24.4	induce apoptosis in a concentration-dependent manner	more potently in H1975 than in HCC827 cells	IC50 (HCC827 cells): 45400 ± 2900 nM; IC50 (H1975 cells [1]; [8]): 25500 ± 3100 nM; reduced cell viability (BEAS-2B cells; [9]): less than 20%; inhibition of phosphorylation of Akt and ERK [5]: more remarkably in H1975 than in HCC827; induction of PUMA (PUMA): more pronounced induction of PUMA in H1975 cells than in HCC827 cells
C=CC(=O)Nc1cc(Nc2nccc(-c3cn(C)c4ccccc34)n2)c(OC)cc1N(C)CCN(C)C [osimertinib]										IC50 [6]: ~11 nM
O=C(c1ccc(F)cc1)C1CCN(CCn2c(=O)[nH]c3ccccc3c2=O)CC1 [Ketanserin]	negative	negative								
CCc1cc2c(cc1CC)CC(NC[C@H](O)c1ccc(O)c3[nH]c(=O)ccc13)C2 [Indacaterol]	exhibit anticancer activity	exhibit anticancer activity	792 ± 43.2	3.4	232 ± 36.5	0.4	103 ± 14	induce apoptosis in a concentration-dependent manner	more potently in H1975 than in HCC827 cells	IC50 (HCC827 cells; Homo sapiens): 41500 ± 3900 nM; IC50 (H1975 cells [1]; [8]): ~14000 nM; IC50 (H1975 cells [1]; Homo sapiens, NCI-H1975, 72 h, H1975 (EGFR L858R/T790M), 72 h, read-out: IC50): 14300 ± 2200 nM; reduced cell viability (BEAS-2B cells; [9]): less than 20%; proportion of apoptotic cells (H1975 cells [4]; H1975, indacaterol alone 5 µM): 9.7 ± 1.8%; inhibition of phosphorylation of Akt and ERK [5]: more remarkably in H1975 than in HCC827; induction of PUMA (PUMA): more pronounced induction of PUMA in H1975 cells than in HCC827 cells; inhibition of phosphorylation of EGFR, Akt, and ERK [7]: mildly
C#Cc1cccc(Nc2ncnc3cc(OCCOC)c(OCCOC)cc23)c1 [Erlotinib]										IC50 (H1975 cells [1]; Homo sapiens, NCI-H1975, 72 h): 8200 ± 2100 nM; IC50 (BEAS-2B cells; Homo sapiens, BEAS-2B normal lung epithelial cells): ~20000 nM
COc1cc2ncnc(Nc3ccc(F)c(Cl)c3)c2cc1OCCCN1CCOCC1 [Gefitinib]										proportion of apoptotic cells (H1975 cells [4]; H1975, gefitinib alone 4 µM): 6.9 ± 1.2%
CCCc1nn(C)c2c(=O)[nH]c(-c3cc(S(=O)(=O)N4CCN(C)CC4)ccc3OCC)nc12 [Sildenafil]	negative	negative								
OCCN1CCN(CC/C=C2/c3ccccc3Sc3ccc(C(F)(F)F)cc32)CC1 [Cis-flupenthixol]	exhibit anticancer activity	exhibit anticancer activity	186 ± 21.5	2.2	83 ± 5.2	1.1	94 ± 11.2	induce apoptosis in a concentration-dependent manner	similarly in both H1975 and HCC827 cells	reduced cell viability (BEAS-2B cells; highest concentration tested 20 µM): less than 20%

Source: publication PMC5712561 (Frontiers in Oncology, 2017)
